Test results as given in the NIST ThermoML archive (doi:10.1016/j.jct.2015.08.014).
Numbers after ± are expanded uncertainties.

Test: xn = mol fraction of the nth substance listed
Conditions: 313.15 K, 100 kPa, Liquid, Alternating current cell with electrodes

CCCC[N+]1(C)CCCC1.N#CN=C=[N-] [1-butyl-1-methylpyrrolidinium dicyanamide] + O=C1CCCO1
Conditions | electrical conductivity [S/m]
Frequency=0.002 MHz, x1 = 1 | 2 ± 0.02
Frequency=0.0025 MHz, x1 = 0.0463 | 1.79 ± 0.032
Frequency=0.0025 MHz, x1 = 0.0987 | 2.72 ± 0.034
Frequency=0.0025 MHz, x1 = 0.1449 | 3.13 ± 0.033
Frequency=0.0025 MHz, x1 = 0.1859 | 3.36 ± 0.034
Frequency=0.0025 MHz, x1 = 0.2493 | 3.36 ± 0.034
Frequency=0.0025 MHz, x1 = 0.3029 | 3.315 ± 0.033
Frequency=0.0025 MHz, x1 = 0.3845 | 3.16 ± 0.032
Frequency=0.0025 MHz, x1 = 0.4985 | 2.87 ± 0.029
Frequency=0.0025 MHz, x1 = 0.6954 | 2.425 ± 0.024
Frequency=0.0025 MHz, x1 = 0.9013 | 2.09 ± 0.021
Frequency=0.0025 MHz, x1 = 1 | 2 ± 0.02
Frequency=0.003 MHz, x1 = 0.0463 | 1.79 ± 0.032
Frequency=0.003 MHz, x1 = 0.0987 | 2.72 ± 0.034
Frequency=0.003 MHz, x1 = 0.1449 | 3.13 ± 0.033
Frequency=0.003 MHz, x1 = 0.1859 | 3.36 ± 0.034
Frequency=0.003 MHz, x1 = 0.2493 | 3.36 ± 0.034
Frequency=0.003 MHz, x1 = 0.3029 | 3.316 ± 0.033
Frequency=0.003 MHz, x1 = 0.3845 | 3.16 ± 0.032
Frequency=0.003 MHz, x1 = 0.4985 | 2.87 ± 0.029
Frequency=0.003 MHz, x1 = 0.6954 | 2.425 ± 0.024
Frequency=0.003 MHz, x1 = 0.9013 | 2.09 ± 0.021
Frequency=0.003 MHz, x1 = 1 | 2 ± 0.02
Frequency=0.00347222 MHz, x1 = 0.0463 | 1.79 ± 0.032
Frequency=0.00347222 MHz, x1 = 0.0987 | 2.72 ± 0.034
Frequency=0.00347222 MHz, x1 = 0.1449 | 3.13 ± 0.033
Frequency=0.00347222 MHz, x1 = 0.1859 | 3.37 ± 0.034
Frequency=0.00347222 MHz, x1 = 0.2493 | 3.36 ± 0.034
Frequency=0.00347222 MHz, x1 = 0.3029 | 3.317 ± 0.033
Frequency=0.00347222 MHz, x1 = 0.3845 | 3.16 ± 0.032
Frequency=0.00347222 MHz, x1 = 0.4985 | 2.87 ± 0.029
Frequency=0.00347222 MHz, x1 = 0.6954 | 2.425 ± 0.024
Frequency=0.00347222 MHz, x1 = 0.9013 | 2.09 ± 0.021
Frequency=0.00347222 MHz, x1 = 1 | 2 ± 0.02
Frequency=0.004 MHz, x1 = 0.0463 | 1.79 ± 0.032
Frequency=0.004 MHz, x1 = 0.0987 | 2.73 ± 0.034
Frequency=0.004 MHz, x1 = 0.1449 | 3.13 ± 0.033
Frequency=0.004 MHz, x1 = 0.1859 | 3.37 ± 0.034
Frequency=0.004 MHz, x1 = 0.2493 | 3.36 ± 0.034
Frequency=0.004 MHz, x1 = 0.3029 | 3.318 ± 0.033
Frequency=0.004 MHz, x1 = 0.3845 | 3.16 ± 0.032
Frequency=0.004 MHz, x1 = 0.4985 | 2.88 ± 0.029
Frequency=0.004 MHz, x1 = 0.6954 | 2.426 ± 0.024
Frequency=0.004 MHz, x1 = 0.9013 | 2.09 ± 0.021
Frequency=0.004 MHz, x1 = 1 | 2 ± 0.02
Frequency=0.00446429 MHz, x1 = 0.0463 | 1.79 ± 0.032
Frequency=0.00446429 MHz, x1 = 0.0987 | 2.73 ± 0.034
Frequency=0.00446429 MHz, x1 = 0.1449 | 3.13 ± 0.033
Frequency=0.00446429 MHz, x1 = 0.1859 | 3.37 ± 0.034
Frequency=0.00446429 MHz, x1 = 0.2493 | 3.36 ± 0.034
Frequency=0.00446429 MHz, x1 = 0.3029 | 3.318 ± 0.033
Frequency=0.00446429 MHz, x1 = 0.3845 | 3.16 ± 0.032
Frequency=0.00446429 MHz, x1 = 0.4985 | 2.88 ± 0.029
Frequency=0.00446429 MHz, x1 = 0.6954 | 2.426 ± 0.024
Frequency=0.00446429 MHz, x1 = 0.9013 | 2.09 ± 0.021
Frequency=0.00446429 MHz, x1 = 1 | 2 ± 0.02
Frequency=0.005 MHz, x1 = 0.0463 | 1.79 ± 0.032
Frequency=0.005 MHz, x1 = 0.0987 | 2.73 ± 0.034
Frequency=0.005 MHz, x1 = 0.1449 | 3.13 ± 0.033
Frequency=0.005 MHz, x1 = 0.1859 | 3.37 ± 0.034
Frequency=0.005 MHz, x1 = 0.2493 | 3.36 ± 0.034
Frequency=0.005 MHz, x1 = 0.3029 | 3.319 ± 0.033
Frequency=0.005 MHz, x1 = 0.3845 | 3.16 ± 0.032
Frequency=0.005 MHz, x1 = 0.4985 | 2.88 ± 0.029
Frequency=0.005 MHz, x1 = 0.6954 | 2.426 ± 0.024
Frequency=0.005 MHz, x1 = 0.9013 | 2.09 ± 0.021
Frequency=0.005 MHz, x1 = 1 | 2 ± 0.02
Frequency=0.005454 MHz, x1 = 0.0463 | 1.79 ± 0.032
Frequency=0.005454 MHz, x1 = 0.0987 | 2.73 ± 0.034
Frequency=0.005454 MHz, x1 = 0.1449 | 3.13 ± 0.033
Frequency=0.005454 MHz, x1 = 0.1859 | 3.37 ± 0.034
Frequency=0.005454 MHz, x1 = 0.2493 | 3.36 ± 0.034
Frequency=0.005454 MHz, x1 = 0.3029 | 3.319 ± 0.033
Frequency=0.005454 MHz, x1 = 0.3845 | 3.16 ± 0.032
Frequency=0.005454 MHz, x1 = 0.4985 | 2.88 ± 0.029
Frequency=0.005454 MHz, x1 = 0.6954 | 2.426 ± 0.024
Frequency=0.005454 MHz, x1 = 0.9013 | 2.09 ± 0.021
Frequency=0.005454 MHz, x1 = 1 | 2 ± 0.02
Frequency=0.006 MHz, x1 = 0.0463 | 1.79 ± 0.032
Frequency=0.006 MHz, x1 = 0.0987 | 2.73 ± 0.034
Frequency=0.006 MHz, x1 = 0.1449 | 3.13 ± 0.033
Frequency=0.006 MHz, x1 = 0.1859 | 3.37 ± 0.034
Frequency=0.006 MHz, x1 = 0.2493 | 3.36 ± 0.034
Frequency=0.006 MHz, x1 = 0.3029 | 3.32 ± 0.033
Frequency=0.006 MHz, x1 = 0.3845 | 3.16 ± 0.032
Frequency=0.006 MHz, x1 = 0.4985 | 2.88 ± 0.029
Frequency=0.006 MHz, x1 = 0.6954 | 2.43 ± 0.025
Frequency=0.006 MHz, x1 = 0.9013 | 2.09 ± 0.021
Frequency=0.006 MHz, x1 = 1 | 2 ± 0.02
Frequency=0.00652174 MHz, x1 = 0.0463 | 1.79 ± 0.032
Frequency=0.00652174 MHz, x1 = 0.0987 | 2.73 ± 0.034
Frequency=0.00652174 MHz, x1 = 0.1449 | 3.13 ± 0.033
Frequency=0.00652174 MHz, x1 = 0.1859 | 3.37 ± 0.034
Frequency=0.00652174 MHz, x1 = 0.2493 | 3.36 ± 0.034
Frequency=0.00652174 MHz, x1 = 0.3029 | 3.32 ± 0.033
Frequency=0.00652174 MHz, x1 = 0.3845 | 3.16 ± 0.032
Frequency=0.00652174 MHz, x1 = 0.4985 | 2.88 ± 0.029
Frequency=0.00652174 MHz, x1 = 0.6954 | 2.43 ± 0.025
Frequency=0.00652174 MHz, x1 = 0.9013 | 2.09 ± 0.021
Frequency=0.00652174 MHz, x1 = 1 | 2 ± 0.02
Frequency=0.00694444 MHz, x1 = 0.0463 | 1.79 ± 0.032
Frequency=0.00694444 MHz, x1 = 0.0987 | 2.73 ± 0.034
Frequency=0.00694444 MHz, x1 = 0.1449 | 3.13 ± 0.033
Frequency=0.00694444 MHz, x1 = 0.1859 | 3.37 ± 0.034
Frequency=0.00694444 MHz, x1 = 0.2493 | 3.36 ± 0.034
Frequency=0.00694444 MHz, x1 = 0.3029 | 3.32 ± 0.033
Frequency=0.00694444 MHz, x1 = 0.3845 | 3.16 ± 0.032
